Results on 27 molecules are retold here after patent publication US9249147B2, “Tyrosine kinase inhibitors” (CHEMBRIDGE CORPORATION, priority 2008, dated 2016).

Series [1] concerns the target T1, IGF1R (Homo sapiens, UniProt P08069).
T1 construct: 6×His- or GST-tagged kinase domain fragments of the corresponding RTKs expressed in baculovirus system; host or cells: baculovirus system
As to the kind of experiment: IGF1R kinase assay. As to conditions: Table 1; read-out: IGF1R IC50. It is filed as biochemical. On the procedure:
(§1) To determine inhibition of several tyrosine kinases, such as IGF1R, InsR, Alk, TrkA and Jak2, kinase assays are conducted using either Kinase-Glo (Promega) or AlphaScreen (PerkinElmer) kinase assay platforms. The Kinase-Glo Luminescent Kinase Assay is a homogeneous method for measuring kinase activity by determining the amount of ATP remaining after a kinase reaction. The luminescent signal is proportional to the amount of ATP and inversely proportional to the amount of kinase activity. Tyrosine kinase PT66 AlphaScreen Assay is a high-sensitivity homogeneous, anti-phosphotyrosine antibody-mediated luminescent proximity method measuring incorporation of phosphate in synthetic poly(Glu-Tyr) substrate. The kinase preparations used consist of purified recombinant, 6×His- or GST-tagged kinase domain fragments of the corresponding RTKs expressed in baculovirus system.
(§2) Compounds with a range of concentrations 40 μM, 20 μM, 10 μM, 5 μM, 2.5 μM, 1.25 μM, 0.625 μM, 0.3125 μM, 0.15625 μM and 0.078125 μM were incubated with NPM-ALK, which was produced in insect cells as a 6×HIS-tagged fusion protein and purified using nickel-charged resin chromatography, for 30 minutes at RT in the presence of 10 μM ATP and 7.0 ng biotinylated poly-GT. A 1:1 mixture of […] and donor beads was then added to the reaction and incubated for an additional 60 minutes at RT. The assay was conducted on a MultiPROBE liquid handling workstation (PerkinElmer) in a 384-well plate format with a total reaction volume of 40 μL per well. Working stocks of all compounds were dissolved in 100% DMSO and serial dilutions of the compounds were performed using kinase buffer (50 mM Tris-HCl (pH 7.5), 5 mM MgCl2, 5 mM MnCl2, 2 mM DTT (added freshly before use), 0.01% Tween-20) containing 5% DMSO. […] Data were collected as optical readings at 520-680 nm on a Fusion™ microplate analyzer (PerkinElmer), and IC50 and Ki values calculated using PRISM3.0 software (GraphPad Software, Inc., San Diego, Calif.). The same assay was also used with minor modifications to assess the IC50 and Ki values for selected compounds against five other tyrosine kinases (IRK, IGF1R, Flt3, Abl, Src), all of which were purchased from commercial vendors. PolyGT-Biotin was bought from CIS Biointernational Cat. #61GT0BLD; ATP—from Sigma Cat. # A7699; sodium orthovanadate—from Sigma Cat. #S-6508; phosphotyrosine (PT66) assay kit from PerkinElmer Cat. #6760602M; automated workstation tips (20 μL): PerkinElmer Cat. #6000657; and OptiPlate-384 (white)—from PerkinElmer Cat. #6007299.

The target of series [2] is T2, IRK (Homo sapiens, UniProt P06213).
T2 construct: 6×His- or GST-tagged kinase domain fragments of the corresponding RTKs expressed in baculovirus system; host or cells: baculovirus system
Kind of series: IRK (insulin receptor kinase) assay. It is filed as biochemical. As to conditions: Table 1; read-out: IRK IC50. On the procedure: as §1, §2

Series [3] addresses ALK (Homo sapiens, UniProt Q9UM73). Kind of series: ALK kinase assay (Kinase-Glo / AlphaScreen, purified NPM-ALK). The class given is biochemical. Also on record: fused to the complete intracytoplasmic portion of ALK containing the functional tyrosine kinase domain; 6xHis; made in house; host or cells: insect cells; the other entry of the earlier key: NPM1 (P06748, Nucleophosmin). As to conditions: Table 1; read-out: ALK IC50. (In general: In Kinase-Glo more light means more ATP remaining.)

A short description of series [4]: Caco-2 (TC7) A-B Permeability test (pH 6.5/7.4). As to conditions: human, A-B Permeability (TC7, pH 6.5/7.4), test concentration 1.0E−05 M. On the technique in general: Passage across Caco-2 layers is used to estimate intestinal permeability.
A short description of series [5]: Aqueous Solubility (PBS, pH 7.4). It is filed as physicochemical. Particulars: pH 7.4, 2.0E−04 M; for solubility: pH 7.4, PBS.
The mark [6] stands for this setting: Caco-2, pH 6.5, Mean Recovery, mean of n = 2.
Setting [7] is: Caco-2, pH 6.5, Permeability 1st, 1st replicate.
The mark [8] stands for this setting: Caco-2, pH 6.5, Permeability 2nd, 2nd replicate.
Where [9] appears, read: Caco-2, pH 6.5, Present Recovery 1st, 1st replicate.
Setting [10] is: Caco-2, pH 6.5, Present Recovery 2nd, 2nd replicate.
Setting [11] is: Tables 9C, 9D, read-out: Solubility Mean.
Setting [12] is: individual data, read-out: Solubility 1st/2nd.
The mark [13] stands for this setting: Caco-2, pH 6.5, Mean Permeability, mean of n = 2.

Converted amounts (≈) assume the structure as drawn. Read-outs that look alike come from different tables or passages of the source. A value given as a limit tells only on which side of the number the result lay.

T1 sequence (P08069 999-1274 limits assumed): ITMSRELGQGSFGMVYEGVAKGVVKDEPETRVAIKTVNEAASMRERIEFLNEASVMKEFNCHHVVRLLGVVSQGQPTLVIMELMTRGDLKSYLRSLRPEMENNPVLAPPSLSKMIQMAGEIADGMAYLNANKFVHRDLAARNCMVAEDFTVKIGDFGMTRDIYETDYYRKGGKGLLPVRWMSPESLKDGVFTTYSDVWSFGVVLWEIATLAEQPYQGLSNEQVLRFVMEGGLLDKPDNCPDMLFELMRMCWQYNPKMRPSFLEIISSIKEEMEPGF
ALK, sequence (Q9UM73 with tags, fused parts or gaps): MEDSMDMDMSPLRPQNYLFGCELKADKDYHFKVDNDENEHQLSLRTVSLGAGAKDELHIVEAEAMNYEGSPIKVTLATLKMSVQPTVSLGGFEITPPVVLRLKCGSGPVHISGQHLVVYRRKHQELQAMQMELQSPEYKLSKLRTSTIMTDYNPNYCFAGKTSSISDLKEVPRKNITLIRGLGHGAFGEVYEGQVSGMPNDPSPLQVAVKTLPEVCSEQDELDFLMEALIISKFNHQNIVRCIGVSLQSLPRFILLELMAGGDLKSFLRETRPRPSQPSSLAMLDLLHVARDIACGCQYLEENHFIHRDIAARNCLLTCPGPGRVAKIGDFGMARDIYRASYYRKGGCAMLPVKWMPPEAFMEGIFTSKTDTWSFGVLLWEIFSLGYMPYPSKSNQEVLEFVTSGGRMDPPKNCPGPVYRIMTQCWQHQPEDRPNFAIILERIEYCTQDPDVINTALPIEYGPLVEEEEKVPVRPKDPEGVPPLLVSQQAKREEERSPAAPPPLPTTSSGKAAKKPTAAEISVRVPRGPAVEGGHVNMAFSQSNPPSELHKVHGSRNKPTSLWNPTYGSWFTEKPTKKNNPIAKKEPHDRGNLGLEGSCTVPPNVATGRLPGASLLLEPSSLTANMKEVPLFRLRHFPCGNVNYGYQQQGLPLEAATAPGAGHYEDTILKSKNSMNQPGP
T2 sequence (P06213 1023-1298 limits assumed): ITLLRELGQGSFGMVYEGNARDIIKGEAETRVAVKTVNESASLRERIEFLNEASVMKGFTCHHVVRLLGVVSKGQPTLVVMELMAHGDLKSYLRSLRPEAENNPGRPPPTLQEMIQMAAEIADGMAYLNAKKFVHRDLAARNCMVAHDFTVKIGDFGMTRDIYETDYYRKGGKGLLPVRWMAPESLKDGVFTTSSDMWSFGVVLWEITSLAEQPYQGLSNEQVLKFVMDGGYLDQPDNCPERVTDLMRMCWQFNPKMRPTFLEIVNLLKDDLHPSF

Broadly, the IC50 is the concentration that inhibits the measured activity by half. For `CC(Cc1cccs1)Nc1cc[nH]c(=O)c1-c1nc2cc3c(cc2[nH]1)C(=O)N(C1CCN(C)CC1)C3=O` (centres unmarked), the values for the IC50 in series [1], in series [2] and in series [3] were above 1 µM, above 1 µM and 0.25 to 1 µM, respectively.
As to `C[C@H](Cc1cccs1)Nc1cc[nH]c(=O)c1-c1nc2cc3c(cc2[nH]1)C(=O)N(CCCN1CCCC1)C3=O`, the 50% inhibitory concentration (IC50) in series [1], in series [2] and in series [3] was above 1 µM each time.
As to `C[C@H](Cc1cccs1)Nc1cc[nH]c(=O)c1-c1nc2cc3c(cc2[nH]1)C(=O)N(CCCN1CCCC1)C3`, the 50% inhibitory concentration (IC50) in series [1] is above 1 µM; in series [2] it was 0.25 to 1 µM; in series [3], above 1 µM.
As for `C[C@H](Cc1cccs1)Nc1cc[nH]c(=O)c1-c1nc2c(Cl)c3c(cc2[nH]1)C(=O)N(C1CCN(C)CC1)C3=O`, the half-maximal inhibitory concentration (IC50) in series [1], in series [2] and in series [3] was above 1 µM each time.
With `CC(Cc1ccccc1F)Nc1cc[nH]c(=O)c1-c1nc2cc3c(cc2[nH]1)C(=O)N(CCCN1CCCC1)C3` (centres unmarked), the concentration for half-maximal inhibition (IC50) was 0.1 to 0.25 µM in series [1], above 1 µM in series [2] and 0.1 to 0.25 µM in series [3].
On to `CC(Cc1cccs1)N(C)c1cc[nH]c(=O)c1-c1nc2cc3c(cc2[nH]1)C(=O)N(CCCN1CCCC1)C3` (centres unmarked), for which the IC50 in series [1], in series [2] and in series [3] was above 1 µM each time.
On to `C[C@@H](Cc1cccs1)Nc1cc[nH]c(=O)c1-c1nc2cc3c(cc2[nH]1)C(=O)N(CCCN(C)C)C3`, for which the half-inhibitory concentration (IC50) is 0.25 to 1 µM in series [1], 0.1 to 0.25 µM in series [2] and 0.1 to 0.25 µM in series [3].
Consider `C[C@@H](Cc1cccs1)Nc1cc[nH]c(=O)c1-c1nc2cc3c(cc2[nH]1)C(=O)N(CCN1CCCC1)C3`, for which the IC50 in series [1] was 0.25 to 1 µM; in series [2], 0.1 to 0.25 µM; in series [3], 0.25 to 1 µM.
Regarding `C[C@H](Nc1cc[nH]c(=O)c1-c1nc2cc3c(cc2[nH]1)C(=O)N(CCCN1CCCC1)C3)[C@H](O)c1ccccc1`, the IC50 in series [1] is 0.25 to 1 µM; in series [2] it was 0.25 to 1 µM; in series [3] it was 0.1 to 0.25 µM.
Consider `C[C@@H](Cc1cccs1)Nc1cc[nH]c(=O)c1-c1nc2cc3c(cc2[nH]1)C(=O)N(C1CCN(CCS(C)(=O)=O)CC1)C3`, for which the half-maximal inhibitory concentration (IC50) in series [1] was 0.1 to 0.25 µM; in series [2], 0.25 to 1 µM; in series [3] it was 0.1 to 0.25 µM.
`CCS(=O)(=O)CCN1CCC(N2Cc3cc4nc(-c5c(N[C@@H](C)Cc6cccs6)cc[nH]c5=O)[nH]c4cc3C2=O)CC1`: the half-inhibitory concentration (IC50) lay within 0.25 to 1 µM in series [1], 0.1 to 0.25 µM in series [2] and 0.1 to 0.25 µM in series [3].
Turning to `Cc1ccsc1C[C@H](C)Nc1cc[nH]c(=O)c1-c1nc2cc3c(cc2[nH]1)CN(CCN1CCCC1)C3=O`, the IC50 in series [1] was 0.25 to 1 µM; in series [2], 0.01 to 0.1 µM; in series [3], 0.01 to 0.1 µM.
With `C[C@@H](Cc1sccc1Cl)Nc1cc[nH]c(=O)c1-c1nc2cc3c(cc2[nH]1)CN(CCN1CCCC1)C3=O`, the IC50 in series [1] is 0.1 to 0.25 µM; in series [2], 0.1 to 0.25 µM; in series [3], 0.01 to 0.1 µM.
For `Cc1ccsc1C[C@H](C)Nc1cc[nH]c(=O)c1-c1nc2cc3c(cc2[nH]1)CN(CCN1CCC[C@H]1C)C3=O`, the half-maximal inhibitory concentration (IC50) was 0.25 to 1 µM in series [1], 0.1 to 0.25 µM in series [2] and 0.01 to 0.1 µM in series [3].
The term Papp A→B denotes how fast a substance crosses the layer from the apical side. For `COc1cc2c(c(OC)c1OC)-c1ccc(OC)c(=O)cc1[C@@H](NC(C)=O)CC2` [Colchicine], the recovery at 10 µM was determined as 97% in series [4] (setting [6]), 99% in series [4] (setting [9]) and 65% in series [4] (setting [10]). The Papp A→B at 10 µM in series [4] (setting [7]) worked out at 0.9 ×10⁻⁶ cm/s; in series [4] (setting [8]) it was 0.05 ×10⁻⁶ cm/s.
As to `O=C(CCCN1CCC(O)(c2ccc(Cl)cc2)CC1)c1ccc(F)cc1` [Haloperidol], in series [5] (individual data), the “Solubility 1st/2nd” value is 61.29 μm. For the same molecule, the solubility in series [5] (setting [11]) was determined as 61.9 µM (≈ 23.3 µg/mL); in series [5] (setting [12]), 62.5 µM (≈ 23.5 µg/mL).
As to `CC(=O)N1CCN(c2ccc(OCC3COC(Cn4ccnc4)(c4ccc(Cl)cc4Cl)O3)cc2)CC1` (centres unmarked) [Ketoconazole, ketoconazole, reference compound], the “Solubility 1st/2nd” value in series [5] (individual data) stood at 109.58 μm. For the same molecule, the solubility in series [5] (setting [11]) was found to be 108 µM (≈ 57.5 µg/mL); in series [5] (setting [12]), 107 µM (≈ 56.7 µg/mL).
`CC(CCc1ccccc1)NCC(O)c1ccc(O)c(C(N)=O)c1` (centres unmarked) [Labetalol]: the results for the apical-to-basolateral permeability (Papp A→B) at 10 µM in series [4] (setting [13]), in series [4] (setting [7]) and in series [4] (setting [8]) were 6 ×10⁻⁶ cm/s, 5.8 ×10⁻⁶ cm/s and 6.21 ×10⁻⁶ cm/s, respectively. Further, the recovery at 10 µM in series [4] (setting [6]) was 90%; in series [4] (setting [9]), 91%; in series [4] (setting [10]), 88%.
Take `CNC(=C[N+](=O)[O-])NCCSCc1ccc(CN(C)C)o1` [Ranitidine]: the Papp A→B at 10 µM in series [4] (setting [13]) came out at 0.6 ×10⁻⁶ cm/s; in series [4] (setting [7]), 0.58 ×10⁻⁶ cm/s; in series [4] (setting [8]) it was 0.64 ×10⁻⁶ cm/s. In addition, the recovery at 10 µM in series [4] (setting [6]) was determined as 95%; in series [4] (setting [9]) it was 82%; in series [4] (setting [10]), 109%.
As to `C[C@@H](Cc1cccs1)Nc1cc[nH]c(=O)c1-c1nc2cc3c(cc2[nH]1)C(=O)N(CCCN1CCCC1)C3` [drawing 259], the IC50 was 0.25 to 1 µM in series [1], 0.1 to 0.25 µM in series [2] and 0.1 to 0.25 µM in series [3].
With `Cc1ccc(F)cc1C[C@H](C)Nc1cc[nH]c(=O)c1-c1nc2c(C)c3c(cc2[nH]1)CN(CCN1CCCC1)C3=O` [drawing 321], the concentration for half-maximal inhibition (IC50) in series [1] was 0.1 to 0.25 µM; in series [2], 0.1 to 0.25 µM; in series [3], below 0.01 µM.
`C[C@@H](Cc1cc(F)cc(F)c1F)Nc1cc[nH]c(=O)c1-c1nc2cc3c(cc2[nH]1)CN(CCN(C)C)C3=O` [drawing 325]: the results for the IC50 in series [1], in series [2] and in series [3] were 0.1 to 0.25 µM, 0.25 to 1 µM and below 0.01 µM, respectively.
With `C[C@@H](Cc1cc(F)cc(F)c1F)Nc1cc[nH]c(=O)c1-c1nc2cc3c(cc2[nH]1)CN(CCN1CCCC1)C3=O` [drawing 327], the values for the IC50 in series [1], in series [2] and in series [3] were 0.25 to 1 µM, 0.25 to 1 µM and 0.01 to 0.1 µM, respectively.
For `C[C@@H](Cc1cc(F)ccc1Br)Nc1cc[nH]c(=O)c1-c1nc2cc3c(cc2[nH]1)CN(CCN1CCCC1)C3=O` [drawing 330], the half-inhibitory concentration (IC50) in series [1] was 0.25 to 1 µM; in series [2] it was 0.1 to 0.25 µM; in series [3], below 0.01 µM.
On the same counts, the results for `Cc1ccc(F)cc1C[C@H](C)Nc1cc[nH]c(=O)c1-c1nc2cc3c(cc2[nH]1)CN(CCN1CCC[C@H]1C)C3=O` [drawing 339] are above 1 µM, 0.25 to 1 µM and 0.01 to 0.1 µM.
On the same counts, the results for `C[C@@H]1CCCN1CCN1Cc2cc3[nH]c(-c4c(N[C@@H](C)Cc5cc(F)cc(F)c5F)cc[nH]c4=O)nc3cc2C1=O` [drawing 340] are above 1 µM, 0.25 to 1 µM and below 0.01 µM.
The like results for `C[C@@H](Cc1c(F)c(F)cc(F)c1F)Nc1cc[nH]c(=O)c1-c1nc2cc3c(cc2[nH]1)CN(CCN1CCCC1)C3=O` [drawing 345] were, in that order, above 1 µM, 0.25 to 1 µM and below 0.01 µM.
